In assay [1] the test system is spindle assembly checkpoint (phosphorylated histone H3 on serine 10) in HeLa cells. As to the kind of experiment: SAC-Formation - Paclitaxel-Induced Assay. Format: cell-based. As to conditions: Homo sapiens, paclitaxel 0.05 μM, 24 h incubation. The text has this:
The spindle assembly checkpoint assures the proper segregation of chromosomes during mitosis. Upon entry into mitosis, chromosomes begin to condensate which is accompanied by the phosphorylation of histone H3 on serine 10. Dephosphorylation of histone H3 on serine 10 begins in anaphase and ends at early telophase. Accordingly, phosphorylation of histone H3 on serine 10 can be utilized as a marker of cells in mitosis. Nocodazole is a microtubule destabilizing substance. Paclitaxel is a microtubule stabilizing compound. Thus, nocodazole as well as paclitaxel interfere with microtubule dynamics and mobilize the spindle assembly checkpoint. […] The mitotic breakthrough can be detected by the decrease of cells with phosphorylation of histone H3 on serine 10. This decline is used as a marker to determine the capability of compounds of the present invention to induce a mitotic breakthrough. The typical morphological alteration of nuclei with a prematurely completed mitosis after SAC-inhibition can be monitored via image analysis routines supporting those findings.
The nocodazole and paclitaxel variations were used to focus on compounds that are capable of inhibiting a SAC induced by both microtubule destabilization as well as microtubule stabilization. […]
Cultivated cells of the human cervical tumor cell line HeLa (ATCC CCL-2) were plated at a density of 1000 cells/well in a 1536-well microtiter plate in 2 μl PAA Ham's F12 Medium supplemented with 1% (v/v) glutamine, 1% (v/v) penicillin, 1% (v/v) streptomycin and 10% (v/v) fetal calf serum. […] Images were acquired with a PERKIN ELMER OPERA™ High-Content Analysis reader. Images were analyzed with image analysis software MetaXpress™ from Molecular devices utilizing the Mitotic Index application module. In this assay both labels HOECHST 33342 and phosphorylated Histone H3 on serine 10 were measured. […] The raw assay data were further analyzed by four-parametric hill equation using Genedata's Assay Analyzer and Condoseo software.

The next assay deals with T1, human Bub1 (Homo sapiens, UniProt O43683).
T1 construct: catalytic domain of human Bub1 (amino acids 704-1085); His6 (N); made in house; host or cells: insect cells (Hi5)
T1 sequence (O43683 704-1085): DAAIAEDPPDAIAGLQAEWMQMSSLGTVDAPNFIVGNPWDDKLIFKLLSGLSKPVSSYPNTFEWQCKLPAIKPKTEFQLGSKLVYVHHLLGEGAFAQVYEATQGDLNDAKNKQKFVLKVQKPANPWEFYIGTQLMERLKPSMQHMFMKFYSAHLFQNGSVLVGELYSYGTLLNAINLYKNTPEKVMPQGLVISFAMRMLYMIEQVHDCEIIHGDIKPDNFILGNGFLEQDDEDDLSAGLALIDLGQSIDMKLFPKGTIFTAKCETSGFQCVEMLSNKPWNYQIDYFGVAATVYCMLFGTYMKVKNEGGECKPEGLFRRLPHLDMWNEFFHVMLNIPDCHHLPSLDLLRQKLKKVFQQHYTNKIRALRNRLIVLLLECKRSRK
Nature of the assay: Bub1 kinase assay (TR-FRET). As to conditions: 10 μM ATP. Type of assay: biochemical. From the text:
Bub1-inhibitory activity of compounds of the present invention was quantified employing the Bub1 TR-FRET assay as described in the following paragraphs.
N-terminally His6-tagged recombinant catalytic domain of human Bub1 (amino acids 704-1085), expressed in insect cells (Hi5) and purified by Ni-NTA affinity chromatography and subsequent size exclusion chromatography, was used as enzyme. As substrate for the kinase reaction the biotinylated peptide biotin-Ahx-VLLPKKSFAEPG (C-terminus in amid form) was used which can be purchased e.g. form the company Biosyntan (Berlin, Germany).
For the assay 50 nl of a 100 fold concentrated solution of the test compound in DMSO was pipetted into a black low volume 384 well microtiter plate (Greiner Bio-One, Frickenhausen, Germany), 2 μl of a solution of Bub1 in aqueous assay buffer [50 mM Tris/HCl pH 7.5, 10 mM magnesium chloride (MgCl2), 200 mM potassium chloride (KCl), 1.0 mM dithiothreitol (DTT), 0.1 mM sodium ortho-vanadate, 1% (v/v) glycerol, 0.01% (w/v) bovine serum albumine (BSA), 0.005% (v/v) Trition X-100 (Sigma), 1× Complete EDTA-free protease inhibitor mixture (Roche)] were added and the mixture was incubated for 15 min at 22° C. to allow pre-binding of the test compounds to the enzyme before the start of the kinase reaction. Then the kinase reaction was started by the addition of 3 μl of a solution of adenosine-tri-phosphate (ATP, 16.7 μM=>final conc. in the 5 μl assay volume is 10 μM) and substrate (1.67 μM=>final conc. in the 5 μl assay volume is 1 μM) in assay buffer and the resulting mixture was incubated for a reaction time of 60 min at 22° C. The concentration of Bub1 was adjusted depending of the activity of the enzyme lot and was chosen appropriate to have the assay in the linear range, typical concentrations were in the range of 200 ng/ml. The reaction was stopped by the addition of 5 μl of a solution of TR-FRET detection reagents (0.2 μM streptavidine-XL665 [Cisbio Bioassays, Codolet, France] and 1 nM anti-phosho-Serine antibody [Merck Millipore, cat. #35-001] and 0.4 nM LANCE EU-W1024 labeled anti-mouse IgG antibody [Perkin-Elmer, product no. AD0077, as an alternative a Terbium-cryptate-labeled anti-mouse IgG antibody from Cisbio Bioassays can be used]) in an aqueous EDTA-solution (50 mM EDTA, 0.2% (w/v) bovine serum albumin in 100 mM HEPES pH 7.5).
The resulting mixture was incubated 1 h at 22° C. to allow the formation of complex between the phosphorylated biotinylated peptide and the detection reagents. Subsequently the amount of phosphorylated substrate was evaluated by measurement of the resonance energy transfer from the Eu-chelate to the streptavidine-XL. Therefore, the fluorescence emissions at 620 nm and 665 nm after excitation at 350 nm was measured in a TR-FRET reader, e.g. a Rubystar or Pherastar (both from BMG Labtechnologies, Offenburg, Germany) or a Viewlux (Perkin-Elmer). The ratio of the emissions at 665 nm and at […] was taken as the measure for the amount of phosphorylated substrate. The data were normalised (enzyme reaction without inhibitor=0% inhibition, all other assay components but no enzyme=100% inhibition).

Usually IC50 stands for the concentration at which inhibition is half-maximal. `Cc1noc(Nc2cnc(C(F)(F)F)cn2)c1C(=O)Nc1ccc(F)c(F)c1` [Example 1c, N-(3,4-Difluorophenyl)-3-methyl-5-{[5-(trifluoromethyl)pyrazin-2-yl]amino}-1,2-oxazole-4-carboxamide]: the IC50 in assay [1] was 180 nM; against human Bub1, over 20000 nM.

On to `Cc1noc(Nc2cnc(C(F)(F)F)cn2)c1C(=O)Nc1ccc(OC2CCN(CCC(F)(F)F)CC2)nc1` [Example 1a, 3-Methyl-5-{[5-(trifluoromethyl)pyrazin-2-yl]amino}-N-(6-{[1-(3,3,3-trifluoropropyl)-piperidin-4-yl]oxy}pyridin-3-yl)-1,2-oxazole-4-carboxamide], for which the half-maximal inhibitory concentration (IC50) in assay [1] is 760 nM; at human Bub1, over 20000 nM.

For `Cc1noc(Nc2cnc(C(=O)NC3CCN(CC(F)F)CC3)cn2)c1C(=O)Nc1ccc(F)c(F)c1` [Example 1b, N-[1-(2,2-Difluoroethyl)piperidin-4-yl]-5-({4-[(3,4-difluorophenyl)carbamoyl]-3-methyl-1,2-oxazol-5-yl}amino)pyrazine-2-carboxamide], the values for the IC50 (in assay [1]; on human Bub1) were 630 nM and over 20000 nM, respectively.

These data come from patent US20170217946A1, “AMINO-SUBSTITUTED ISOXAZOLES” (Bayer Pharma Aktiengesellschaft, priority 2014, published 2017).
